Results: the CheMixHub viscosity set

Assay: xn = mol fraction of the nth substance listed

CC(=O)O + CCOC(C)=O
viscosity [mPa·s], 101 kPa
Conditions	298.15 K	313.15 K
x1 = 0.1049	0.459	–
x1 = 0.207	0.4949	–
x1 = 0.3037	0.5331	–
x1 = 0.399	0.5762	–
x1 = 0.4985	0.6289	–
x1 = 0.5996	0.689	–
x1 = 0.6988	0.7668	–
x1 = 0.8011	0.859	–
x1 = 0.8742	0.943	–
x2 = 0.102	0.97	0.791
x2 = 0.2035	0.867	0.707
x2 = 0.3037	0.771	0.634
x2 = 0.4101	0.697	0.579
x2 = 0.4979	0.644	0.538
x2 = 0.6006	0.582	0.488
x2 = 0.6962	0.543	0.454
x2 = 0.7971	0.499	0.419
x2 = 0.9048	0.46	0.388

ClCCl + CCCCCC
298 K, 101 kPa
Conditions	viscosity [mPa·s]
x2 = 0.1331	0.386
x2 = 0.2381	0.367
x2 = 0.3208	0.354
x2 = 0.3873	0.346
x2 = 0.4407	0.34
x2 = 0.4419	0.34
x2 = 0.4746	0.335
x2 = 0.4862	0.335
x2 = 0.5144	0.333
x2 = 0.5244	0.332
x2 = 0.5599	0.329
x2 = 0.6138	0.324
x2 = 0.6791	0.32
x2 = 0.7601	0.314
x2 = 0.8633	0.308

CC(=O)O + CC(C)O
viscosity [mPa·s], 101 kPa
Conditions	x1 = 0.00598	x1 = 0.02919	x1 = 0.04037	x1 = 0.0567	x1 = 0.1073	x1 = 0.1528	x1 = 0.1938	x1 = 0.2308
298.15 K	2.633	2.564	2.503	2.435	2.286	2.221	2.133	2.058
308.15 K	1.962	1.906	1.877	1.843	1.75	1.696	1.651	1.621
318.15 K	1.521	1.491	1.474	1.454	1.4	1.363	1.33	1.306

ClCCl + CCCO
Conditions	viscosity [mPa·s]
298.15 K, 101 kPa, x2 = 0.05	0.48
298.15 K, 101 kPa, x2 = 0.1	0.535
298.15 K, 101 kPa, x2 = 0.1002	0.44
298.15 K, 101 kPa, x2 = 0.15	0.588
298.15 K, 101 kPa, x2 = 0.1991	0.487
298.15 K, 101 kPa, x2 = 0.2	0.639
298.15 K, 101 kPa, x2 = 0.2496	0.496
298.15 K, 101 kPa, x2 = 0.25	0.689
298.15 K, 101 kPa, x2 = 0.2978	0.528
298.15 K, 101 kPa, x2 = 0.3	0.74
298.15 K, 101 kPa, x2 = 0.35	0.792
298.15 K, 101 kPa, x2 = 0.3938	0.6
298.15 K, 101 kPa, x2 = 0.4	0.846
298.15 K, 101 kPa, x2 = 0.45	0.904
298.15 K, 101 kPa, x2 = 0.4603	0.668
298.15 K, 101 kPa, x2 = 0.498	0.716
298.15 K, 101 kPa, x2 = 0.5	0.966
298.15 K, 101 kPa, x2 = 0.55	1.032
298.15 K, 101 kPa, x2 = 0.589	0.843
298.15 K, 101 kPa, x2 = 0.6	1.104
298.15 K, 101 kPa, x2 = 0.65	1.182
298.15 K, 101 kPa, x2 = 0.6943	1.043
298.15 K, 101 kPa, x2 = 0.7	1.266
298.15 K, 101 kPa, x2 = 0.75	1.357
298.15 K, 101 kPa, x2 = 0.7977	1.289
298.15 K, 101 kPa, x2 = 0.8	1.455
298.15 K, 101 kPa, x2 = 0.85	1.56
298.15 K, 101 kPa, x2 = 0.8955	1.57
298.15 K, 101 kPa, x2 = 0.9	1.673
298.15 K, 101 kPa, x2 = 0.95	1.794
303.15 K, 101.3 kPa, x2 = 0.0434	0.401
303.15 K, 101.3 kPa, x2 = 0.0863	0.4085
303.15 K, 101.3 kPa, x2 = 0.1371	0.423
303.15 K, 101.3 kPa, x2 = 0.1943	0.445
303.15 K, 101.3 kPa, x2 = 0.2863	0.4936
303.15 K, 101.3 kPa, x2 = 0.3859	0.5655
303.15 K, 101.3 kPa, x2 = 0.4983	0.6748
303.15 K, 101.3 kPa, x2 = 0.5806	0.7794
303.15 K, 101.3 kPa, x2 = 0.7402	1.059
303.15 K, 101.3 kPa, x2 = 0.828	1.257
303.15 K, 101.3 kPa, x2 = 0.9016	1.447
303.15 K, 101.3 kPa, x2 = 0.9307	1.606
303.15 K, 101.3 kPa, x2 = 0.9459	1.57
303.15 K, 101.3 kPa, x2 = 0.95	1.643
